# Key:
# [1] = system: carrageenin-induced edema; assay: Carrageenin-induced footpad edema method; type: in vivo, Wistar rats; conditions: 100 mg/kg oral; 5 hours after λ-carrageenin injection
# Protocol: The anti-inflammatory effect of sphingomyelin was tested by a carrageenin-induced footpad edema method. Specifically, a test subject shown in Table 15 was suspended in an aqueous solution containing 0.5% carboxymethylcellulose and orally administered (100 mg/kg) to male Wistar rats (body weight: 110 to 130 g, 8 individuals per group) according to the method of Winter et al. (Proceedings of the Society for Experimental Biology & Medicine, vol. 111, pp. 554, 1962). […] An aqueous solution containing 0.5% carboxymethylcellulose and no test substance was administered to rats in a control group. A rate of increase in footpad volume (V0) attributed to the injection of λ-carrageenin was measured in the control group in the same way as above. An carrageenin-induced edema inhibition rate (%) was calculated according to the calculation formula: (V0−V1)×100/V0 and used as the anti-inflammatory activity of the test substance. A higher value of this inhibition rate indicates higher anti-inflammatory activity.
# [2] = system: sialomucin content in the saliva; assay: Effect of promoting sialomucin secretion: sialomucin content in rat saliva; type: in vivo, SD rats; conditions: 7th day of experimental diet containing 1% of the substance
# Protocol: Seven-week-old male SD rats (manufactured by Charles River Laboratories, Japan, Inc) were raised under conditions involving humidity of 60%, room temperature of 24° C., and light-dark (12 hour/12 hour) control. All the rats were preliminarily raised for 1 week with a standard diet and then divided into 3 groups each containing 12 individuals. These groups were allowed to freely take their respective experimental diets and raised for 1 week. Rat saliva was collected on the 7th day after the administration of experimental diets. A sialomucin content in the saliva was measured by high-performance liquid chromatography. […] In this context, a sialomucin content in the saliva was measured by the following method: 0.2 ml of a Nembutal solution was intramuscularly injected to rats fasted for 2 hours or longer. After anesthesia, a solution of pilocarpine hydrochloride serving as a saliva secretion promoter was intramuscularly injected thereto. […] A sialomucin content in the sialomucin fraction was quantified with a Sialic Acid Fluorescence Labeling Kit (Takara Bio Inc.). […] Free N-acetyl sialic acid or O-acetylated sialic acid was reacted at 55° C. for 2.5 hours by the addition of a DMB reagent as a fluorescence labeling agent and then quantified by high-performance liquid chromatography.
# cholera toxin = conditions: in vivo
Compound,Inhibition rate [1] [%],Sialomucin content [2] [µg/µL],Inhibition rate (cholera toxin) [%]
COc1ccc2c(c1)c(CC(=O)O)c(C)n2C(=O)c1ccc(Cl)cc1 [Indomethacin],37.5,–,–
"CC(=O)N[C@H]1[C@H]([C@H](O)[C@H](O)CO)OC(O)(C(=O)O)C[C@@H]1O (stereo partly shown) [Sialic acid (derived from milk), Sialic acid]",38.1,–,–
"sialyllactose [SL, reference compound]",–,24.9 ± 3.1,37.9 ± 2.9

# — patent US8486916B2, “Medicine, food and drink or feed containing sphingomyelin” (Megmilk Snow Brand Co., Ltd., priority 2005, dated 2013)
